Assay results reported in patent US20260242391A1 (priority 2023, published 2026).

Tests used:
HL-60 = HL-60 differentiation potency; type: cell-based; conditions: Homo sapiens
in vitro = conditions: human

| SMILES | EC50 (HL-60) | IC50 (in vitro) | IC50 (in vitro; HL-60 cells) |
| --- | --- | --- | --- |
| C[C@H]1[C@@H](OCc2cc(C(=O)O)ccc2Cl)O[C@@H]2O[C@@]3(C)CC[C@H]4[C@H](C)CC[C@@H]1[C@@]24OO3 [Compound 167, 4-chloro-3-((((3R,5aS,6R,8aS, 9R,10S,12R, 12aR)-3,6,9-trimethyldeca-hydro-12H-3,12-epoxy[1,2]dioxepino[4,3-i]isochromen-10-yl)oxy)methyl) benzoic acid] | 132 nM | 10500 nM | – |
| C[C@H]1[C@H](OCc2cc(C(=O)O)ccc2Cl)O[C@@H]2O[C@@]3(C)CC[C@H]4[C@H](C)CC[C@@H]1[C@@]24OO3 [Compound 168, 4-chloro-3-((((3R,5aS,6R,8aS, 9R,10R,12R, 12aR)-3,6,9-trimethyldeca-hydro-12H-3,12-epoxy[1,2]dioxepino[4,3-i]isochromen-10-yl)oxy)methyl) benzoic acid] | 45.3 nM | 6500 nM | – |
| C[C@H]1[C@@H](OCc2ccc(B(O)O)cc2)O[C@@H]2O[C@@]3(C)CC[C@H]4[C@H](C)CC[C@@H]1[C@@]24OO3 [Compound 169, (4-((((3R,5aS,6R,8aS, 9R,10S,12R, 12aR)-3,6,9-trimethyldeca-hydro-12H-3,12-epoxy[1,2]dioxepino[4,3-i]isochromen-10-yl)oxy)methyl)phenyl)boronic acid] | 128 nM | 270 nM | – |
| C[C@H]1[C@@H](Oc2ccc(C(F)(F)C(=O)O)cc2)O[C@@H]2O[C@@]3(C)CC[C@H]4[C@H](C)CC[C@@H]1[C@@]24OO3 [Compound 171, 2,2-difluoro-2-(4-(((3R,5aS,6R,8aS, 9R,10S,12R, 12aR)-3,6,9-trimethyldeca-hydro-12H-3,12-epoxy[1,2]dioxepino[4,3-i]isochromen-10-yl)oxy)phenyl) acetic acid] | 7070 nM | > 20000 nM | – |
| C[C@H]1[C@@H](OCC(C(=O)O)c2ccccc2)O[C@@H]2O[C@@]3(C)CC[C@H]4[C@H](C)CC[C@@H]1[C@@]24OO3 (stereo partly drawn) [Compound 172, 2-phenyl-3-(((3R,5aS,6R,8aS, 9R,10S,12R, 12aR)-3,6,9-trimethyldeca-hydro-12H-3,12-epoxy[1,2]dioxepino[4,3-i]isochromen-10-yl)oxy) propanic acid] | 273 nM | > 20000 nM | – |
| C[C@H]1[C@H](OC[C@H]2CCC[C@@H](C(=O)O)C2)O[C@@H]2O[C@@]3(C)CC[C@H]4[C@H](C)CC[C@@H]1[C@@]24OO3 [Compound 173, (1R,3S)-3-((((3R,5aS,6R,8aS, 9R,10R,12R, 12aR)-3,6,9-trimethyldeca-hydro-12H-3,12-epoxy[1,2]dioxepino[4,3-i]isochromen-10-yl)oxy)methyl) cyclohexane-1-carboxylic acid] | 170 nM | > 20000 nM | – |
| C[C@H]1[C@H](OCCCc2ccc(C(=O)O)cc2F)O[C@@H]2O[C@@]3(C)CC[C@H]4[C@H](C)CC[C@@H]1[C@@]24OO3 [Compound 174, 3-fluoro-4-(3-(((3R,5aS,6R,8aS, 9R,10R,12R, 12aR)-3,6,9-trimethyldeca-hydro-12H-3,12-epoxy[1,2]dioxepino[4,3-i]isochromen-10-yl)oxy)propyl) benzoic acid] | 111 nM | 7000 nM | – |
| C[C@H]1[C@@H](Oc2ccc(C3CC(C(=O)O)C3)cc2)O[C@@H]2O[C@@]3(C)CC[C@H]4[C@H](C)CC[C@@H]1[C@@]24OO3 (stereo partly drawn) [Compound 175, 3-(4-(((3R,5aS,6R,8aS, 9R,10S,12R, 12aR)-3,6,9-trimethyldeca-hydro-12H-3,12-epoxy[1,2]dioxepino[4,3-i]isochromen-10-yl)oxy)phenyl) cyclobutane-1-carboxylic acid] | 58.1 nM | 1500 nM | – |
| C[C@H]1[C@H](OCc2ccc(B(O)O)cc2)O[C@@H]2O[C@@]3(C)CC[C@H]4[C@H](C)CC[C@@H]1[C@@]24OO3 [Compound 176, (4-((((3R,5aS,6R,8aS, 9R,10R,12R, 12aR)-3,6,9-trimethyldeca-hydro-12H-3,12-epoxy[1,2]dioxepino[4,3-i]isochromen-10-yl)oxy)methyl)phenyl)boronic acid] | 206 nM | 400 nM | – |
| C[C@H]1[C@@H](OCc2c(Cl)cc(C(=O)O)cc2Cl)O[C@@H]2O[C@@]3(C)CC[C@H]4[C@H](C)CC[C@@H]1[C@@]24OO3 [Compound 177, 3,5-dichloro-4-((((3R,5aS,6R,8aS, 9R,10S,12R, 12aR)-3,6,9-trimethyldeca-hydro-12H-3,12-epoxy[1,2]dioxepino[4,3-i]isochromen-10-yl)oxy)methyl) benzoic acid] | 44.5 nM | 660 nM | – |
| C[C@H]1[C@@H](OCc2cc(Cl)cc(C(=O)O)c2)O[C@@H]2O[C@@]3(C)CC[C@H]4[C@H](C)CC[C@@H]1[C@@]24OO3 [Compound 178, 3-chloro-5-((((3R,5aS,6R,8aS, 9R,10S,12R, 12aR)-3,6,9-trimethyldeca-hydro-12H-3,12-epoxy[1,2]dioxepino[4,3-i]isochromen-10-yl)oxy)methyl) benzoic acid] | 243 nM | 4000 nM | – |
| CC(O[C@H]1O[C@@H]2O[C@@]3(C)CC[C@H]4[C@H](C)CC[C@@H]([C@H]1C)[C@@]24OO3)c1ccc(C(=O)O)cc1Cl (stereo partly drawn) [Compound 179, 3-chloro-4-(1-(((3R,5aS,6R,8aS, 9R,10S,12R, 12aR)-3,6,9-trimethyldeca-hydro-12H-3,12-epoxy[1,2]dioxepino[4,3-i]isochromen-10-yl)oxy)ethyl) benzoic acid] | 65.8 nM | 1500 nM | – |
| C[C@H]1[C@@H](Oc2ccc(C(C)(C)C(=O)O)cc2Cl)O[C@@H]2O[C@@]3(C)CC[C@H]4[C@H](C)CC[C@@H]1[C@@]24OO3 [Compound 180, 2-(3-chloro-4-(((3R,5aS,6R,8aS, 9R,10S,12R, 12aR)-3,6,9-trimethyldeca-hydro-12H-3,12-epoxy[1,2]dioxepino[4,3-i]isochromen-10-yl)oxy)phenyl)-2-methylpropanoic acid] | 40.2 nM | 160 nM | – |
| C[C@H]1[C@@H](OCC2CC3C(C2)C3C(=O)O)O[C@@H]2O[C@@]3(C)CC[C@H]4[C@H](C)CC[C@@H]1[C@@]24OO3 (stereo partly drawn) [Compound 181, 3-((((3R,5aS,6R,8aS, 9R,10S,12R, 12aR)-3,6,9-trimethyldeca-hydro-12H-3,12-epoxy[1,2]dioxepino[4,3-i]isochromen-10-yl)oxy)methyl) bicyclo[3.1.0] hexane-6-carboxylic acid] | 140 nM | > 20000 nM | – |
| C[C@H]1[C@@H](Oc2ccc(O[C@H]3C[C@@H](C(=O)O)C3)cc2)O[C@@H]2O[C@@]3(C)CC[C@H]4[C@H](C)CC[C@@H]1[C@@]24OO3 [Compound 182, (1R,3s)-3-(4-(((3R,5aS,6R,8aS, 9R,10S,12R, 12aR)-3,6,9-trimethyldeca-hydro-12H-3,12-epoxy[1,2]dioxepino[4,3-i]isochromen-10-yl)oxy)phenoxy) cyclobutane-1-carboxylic acid] | 24.1 nM | – | 1000 nM |
| C[C@H]1[C@@H](Oc2ccc(CC(=O)O)cc2C(F)(F)F)O[C@@H]2O[C@@]3(C)CC[C@H]4[C@H](C)CC[C@@H]1[C@@]24OO3 [Compound 183, 2-(3-(trifluoromethyl)-4-(((3R,5aS,6R, 8aS,9R,10S,12R, 12aR)-3,6,9-trimethyldeca-hydro-12H-3,12-epoxy[1,2]dioxepino[4,3-i]isochromen-10-yl)oxy)phenyl) acetic acid] | 47.1 nM | 900 nM | – |
